# Values quoted from earlier work as cited in patent US7767881B2, “Utilization of histamine receptor h3 gene participating in body weight or food intake control” (priority 2001, dated 2010).
# How the values were obtained:
# mice [1] = system: mice
# [2] = system: senescence-accelerated mice; settings: senescence-accelerated mice with learning disabilities
# mice [3] = system: mice; remark: listed apart in the source
# [4] = experimental epilepsy model
# mice [5] = system: mice; remark: listed apart in the source
smiles,measurement,setting,value
Clc1cccc(Cl)c1NC1=NCCN1 [clinidine],histamine neuron metabolic turnover,histamine neuron,reduce histamine neuron metabolic turnover
NCCc1c[nH]cn1 [histamine],analgesic/algesic action,"mice [1]; mice, intracerebral administration","analgesic and/or algesic action, depending on the dose"
S=C(NC1CCCCC1)N1CCC(c2cnc[nH]2)CC1 [thioperamide],learning,[2],improving learning
same,anxiety,mice [3],anxiety-inducing effects
same,electroconvulsion,[4],suppressed
same,analgesia,"mice [1]; due to stimulation of the histamine receptor H1 protein, antagonized by RAMH",attenuation of analgesia
same,waking,cats; effect antagonized by RAMH,waking effects were observed
same,effect on RAMH-induced increase in deep slow-wave sleep,cats; given against RAMH,reversed
O=C1CC2(CCCC2)CC(=O)N1CCCCN1CCN(c2ncccn2)CC1 [buspirone],histamine neuron metabolic turnover,histamine neuron,reduce histamine neuron metabolic turnover
"C[C@@H](N)Cc1c[nH]cn1 [RAMH, R-α-methylhistamine]",voluntary movement,mice [5],decreases voluntary movement
same,voluntary movement,rats,decreases voluntary movement
same,deep slow-wave sleep,cats; administration of the agonist,significant increase in deep slow-wave sleep
CCCN(CCC)C1CCc2cccc(O)c2C1 (centres unmarked) [8-OH-DPAT],histamine neuron metabolic turnover,histamine neuron,reduce histamine neuron metabolic turnover
NC(=NCc1ccc(Cl)cc1)SCCCc1cnc[nH]1 [Clobenpropit],electroconvulsion,[4],suppressed
